US20240376074A1, “NAMPT INHIBITORS AND USES THEREOF” (Remedy Plan, Inc., priority 2021, published 2024)

Target: T1, NAMPT (Homo sapiens, UniProt P43490)
T1 construct: purchased Abcam ab221819
Assay: NAMPT Activity Assay (Abcam #ab221819)
Assay type: biochemical
Conditions: purified NAMPT, percent inhibition from OD450 nm; compound concentration not given
Experimental: The NAMPT Activity Assay (Abcam #ab221819) was performed following manufacturers two-step reaction protocol. Briefly, compounds were added to a clear 96-well plate using the HP D300e Digital Dispenser. Purified NAMPT was added to all wells except the No NAMPT controls. Reaction Mix #1 was added to each well and the plate was incubated at 30*C for 1 hr followed by the addition of Reaction Mix #2. Absorbance was measured at OD450 nm using a multimode plate reader. Readings were recorded for 5 minutes and percent inhibition was calculated using: (1-(OD450 nm compound/OD450nm no drug))*100.

T1 sequence (P43490 whole entry): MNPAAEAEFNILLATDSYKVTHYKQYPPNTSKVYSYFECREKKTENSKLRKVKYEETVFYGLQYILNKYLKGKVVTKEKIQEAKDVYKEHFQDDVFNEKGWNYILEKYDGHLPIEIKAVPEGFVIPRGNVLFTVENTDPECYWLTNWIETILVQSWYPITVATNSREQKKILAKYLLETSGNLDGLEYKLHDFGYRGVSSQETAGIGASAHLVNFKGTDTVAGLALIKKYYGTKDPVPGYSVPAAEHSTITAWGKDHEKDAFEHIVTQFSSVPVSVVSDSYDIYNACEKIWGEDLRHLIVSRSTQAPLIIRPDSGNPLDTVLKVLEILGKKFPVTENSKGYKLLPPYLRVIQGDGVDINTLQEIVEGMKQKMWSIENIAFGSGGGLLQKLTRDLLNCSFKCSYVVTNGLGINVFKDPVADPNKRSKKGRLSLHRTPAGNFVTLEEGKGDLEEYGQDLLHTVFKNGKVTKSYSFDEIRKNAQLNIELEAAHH

Row | Structure (SMILES) | NAMPT Inhibition Code*
1 | CC(=O)N(CC1CC1)c1ccc(-c2ccc(C(=O)NCCc3c[nH]cn3)cn2)cc1Cl [I-T2150, 6-[4-[Acetyl(cyclopropylmethyl)amino]-3-chloro-phenyl]-N-[2-(1H-imidazol-4-yl)ethyl]pyridine-3-carboxamide] | C (C = ≥66% inhibition)
2 | CC(=O)N(CC(F)F)c1ccc(-c2ccc(C(=O)Nc3cnc4nccn4c3)cn2)cc1Cl [I-T2201, 6-[4-[Acetyl(2,2-difluoroethyl)amino]-3-chloro-phenyl]-N-imidazo[1,2-a]pyrimidin-6yl-pyridine-3-carboxamide] | C (C = ≥66% inhibition)
3 | CC(=O)N(CC1CC1)c1ccc(-c2ccc(C(=O)NCCc3cccnc3)cn2)cc1Cl [I-T2130, 6-[4-[Acetyl(cyclopropylmethyl)amino]-3-chloro-phenyl]-N-[2-(3-pyridyl)ethyl]pyridine-3-carboxamide] | C (C = ≥66% inhibition)
4 | CC(=O)N(CC1CC1)c1ccc(-c2ccc(C(=O)N3Cc4ccc(F)cc4C3)cn2)cc1Cl [I-T2336, N-[2-chloro-4-[5-(5-fluoroisoindoline-2-carbonyl)-2-pyridyl]phenyl]-N-(cyclopropylmethyl) acetamide] | C (C = ≥66% inhibition)
5 | CC(=O)N(CC1CC1)c1ccc(-c2ccc(C(=O)NCc3cncnc3)cn2)cc1Cl [I-T2147, 6-[4-[Acetyl(cyclopropylmethyl)amino]-3-chloro-phenyl]-N-(pyrimidin-5-ylmethyl)pyridine-3-carboxamide] | A (*A = <33% inhibition)
6 | COC(=O)c1cc(-c2ccc(C(=O)NCCc3cn[nH]c3)cn2)ccc1N(CC1CC1)C(C)=O [I-T2297, Methyl 2-[acetyl(cyclopropylmethyl)amino]-5-[5-[2-(1H-pyrazol-4-yl)ethylcarbamoyl]-2-pyridyl]benzoate] | C (C = ≥66% inhibition)
7 | CC(=O)N(CC1CC1)c1ccc(-c2ccc(C(=O)NCCc3cccnc3)cn2)cc1C(F)(F)F [I-T2303, 6-[4-[Acetyl(cyclopropylmethyl)amino]-3-(trifluoromethyl)phenyl]-N-[2-(3-pyridyl)ethyl]pyridine-3-carboxamide] | C (C = ≥66% inhibition)
8 | CC(=O)N(CC1CC1)c1ccc(-c2ccc(C(=O)NCc3ccc(C(F)F)nc3)cn2)cc1Cl [I-T2397, 6-[4-[acetyl(cyclopropylmethyl)amino]-3-chloro-phenyl]-N-[[6-(difluoromethyl)-3-pyridyl]methyl]pyridine-3-carboxamide] | C (C = ≥66% inhibition)
9 | CC(=O)N(CC1CC1)c1ccc(-c2ccc(NC(=O)Cc3ccc(Cl)cc3)cn2)cc1Cl [I-T2393, N-[6-[4-[acetyl(cyclopropylmethyl)amino]-3-chloro-phenyl]-3-pyridyl]-2-(4-chlorophenyl)acetamide] | C (C = ≥66% inhibition)
10 | COC(=O)c1cc(-c2ccc(C(=O)NCCc3cccnc3)cn2)ccc1N(CC1CC1)C(C)=O [I-T2296, Methyl 2-[acetyl(cyclopropylmethyl)amino]-5-[5-[2-(3-pyridyl)ethylcarbamoyl]-2-pyridyl]benzoate] | C (C = ≥66% inhibition)
11 | CC(=O)N(CC1CC1)c1ccc(-c2ccc(C(=O)NCCCc3cnn(C)c3)cn2)cc1Cl [I-T2366, 6-[4-[acetyl(cyclopropylmethyl)amino]-3-chloro-phenyl]-N-[3-(1-methylpyrazol-4-yl)propyl]pyridine-3-carboxamide] | A (*A = <33% inhibition)
12 | CC(=O)N(CC(F)F)c1ccc(-c2ccc(C(=O)NCc3ccccc3)cn2)cc1Cl [I-T2284, 6-[4-[Acetyl(2,2-difluoroethyl)amino]-3-chloro-phenyl]-N-benzyl-pyridine-3-carboxamide] | A (*A = <33% inhibition)
13 | CC(=O)N(CC1CC1)c1ccc(-c2ccc(NC(=O)Cc3cccnc3Cl)cn2)cc1Cl [I-T2392, N-[6-[4-[acetyl(cyclopropylmethyl)amino]-3-chloro-phenyl]-3-pyridyl]-2-(2-chloro-3-pyridyl)acetamide] | A (*A = <33% inhibition)
